Primed or numbered codes have the meaning given here. * marks the point of attachment. 10Ca = carbamate linkage conjugating the peptide-PEG to paclitaxel at C10; 10Ca‑PXL = paclitaxel conjugated at C10 via a carbamate; 3Am‑VBL = vinblastine (VBL) conjugate; 3′Alk‑MAL(9) = not defined here; ALK(6) = not defined here; MAL(9) = not defined here; 3′Alk = not defined here; PEG(11) = PEG(11) linker; 10Es = not defined here; 3Am = not defined here; Cbz = O=C(OCc1ccccc1)*; PEG(13) = PEG13 linker; Boc = CC(C)(C)OC(=O)*; Piv = CC(C)(C)C(=O)*; OBn = c1ccc(CO*)cc1; DOX = doxorubicin; VBL = vinblastine; PXL = paclitaxel
Legend:
Human Src = target: T1, Human Src (Homo sapiens, UniProt P12931); assay: Src kinase assay (PKLight ATP utilization, substrate phosphorylation as % of parent peptide); assay type: biochemical; details: for Src (Qual. Act.): DOX-Src kinase substrate conjugates
T1 construct: purchased Upstate (Charlottesville, Va.) 14-326
Description: Another test may involve monitoring the consumption of ATP. For example, ATP concentrations at time 0 or after 4 hour incubation may be monitored by luciferase reaction (PKLight kit obtained from Cambrex Corporation, One Meadowlands Plaza, East Rutherford, N.J. 07073), which generate a luminescence readout in the presence of ATP. Assays are initiated by mixing a kinase and a peptide in the presence of 40 μM ATP. After 4 hour of incubation at 30° C., PKLight reagent is added and mixed well, and luminescence readout measured. The rate of peptide phosphorylation is then directly related to the rate of decrease in the observed luminescence. Based on the first test, linkers of appropriate lengths and peptides with an effective amount of kinase activity which may be expected to be retained in the drug conjugate may be found.
Human Src (#14-326) and Akt (#14-276) kinases were purchased from Upstate (Charlottesville, Va.). Kinase reactions were carried out in 50 μl kinase reaction cocktail (25 mM Tris-HCl, pH 7.5, 5 μM β-glycerophosphate, 2 mM DTT, 0.1 mM Na3VO4, 10 mM MgCl2, 1 mg/ml BSA, […], 0.5 to 1.0 units enzyme). Substrates (peptide or drug-peptide conjugate in […]) were added (25, 50 and 100 μM) and the reaction was incubated for 2-5 hours at 30° C. PKLight reagent (23 μl) (Cambrex BioSciences, Rockland, Me.) was mixed with […] of the above kinase reaction and ATP utilization relative to no substrate and no ATP controls was determined by measuring luminescence with a SpectraMax Gemini EM plate reader (Molecular Devices, Sunnyvale, Calif.). Peptide substrates for Src and Akt have been described. For examples, see Lou et al. Letters in Peptide Science, 2, 289-296 (1995); Lou et al. Bioorganic & Medicinal Chemistry, 4, 677-682 (1996); Alessi et al. FEBS Letters, 399, 333-338 (1996). Substrate phosphorylation potential was determined from the linear portion of the substrate concentration dose response as a percentage of the activity observed with the parent peptide used for drug conjugation.

MCF-7 breast carcinoma = assay: Cytotoxicity assay (monolayer), MCF-7; assay type: cell-based; details: MCF7, ML (monolayer); read-out: MCF7 (EC50 Ave) ML;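 further: cells treated 72 h with 6-8 compound doses versus DMSO vehicle controls, EC50 fitted by 4-parameter dose-response curves, averaged across all tests and lots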
HUVEC = assay: Cytotoxicity assay (monolayer), HUVEC; assay type: cell-based; details: ML (monolayer), read-out: HUVEC (EC50 Ave) ML
[1] = tested on: Normal human foreskin fibroblasts (HFF); details: read-out: HFF (EC50 Ave) ML; HFF, ML (monolayer)
tubulin = assay: Fluorescence-based tubulin polymerization assay (MPA; enhancement for paclitaxel, inhibition for vinblastine); assay type: biochemical
From the text: Drug-linker constructs may further be screened using functional assays predictive of biological activity. […] Tubulin assembly or inhibition thereof may be monitored by fluorescence using the CytoDYNAMIX Screen™ 10 kit available from Cytoskeleton (1830 S. Acoma St., Denver, Colo.). […] Emission is monitored at 405 nm with excitation at 360 nm. […] Tubulin assembly or inhibition may also be monitored by light scattering which is approximated by the apparent absorption at 350 nm. For paclitaxel drug conjugates BSA is employed to prevent aggregation and glycerol, which is a tubulin polymerization enhancer, is omitted from the kit to increase the signal to noise ratio.
The assay kit (#BK011) was purchased from Cytoskeleton (Denver, Colo.). The assays were carried out according to the manufacturer's instructions, except that 1 mg/ml BSA (Sigma #A3059) was included in all assays. […] Parent drugs and conjugates were tested at 0.75, 1.5, 3 and 10 micromolar final concentration and results represent a comparison of conjugate and parent drug curves obtained from the linear range of the dose responses.
(±SD) represent the average of all tests carried out for all lots of a given compound.

[2] = tested on: HT-29 colorectal carcinoma; assay: Cytotoxicity assay (monolayer), HT-29; assay type: cell-based; details: HT29, ML (monolayer); read-out: HT29 (EC50 Ave) ML;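 further: monolayer cultures tested in triplicate, compound exposure for three days against DMSO vehicle controls, EC50 fitted from dose-response curves and averaged across all tests and lots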

Substance | Src (Qual. Act.) (Human Src) | EC50 (MCF-7 breast carcinoma) | EC50 (HUVEC) | EC50 [1] | Average src kinase activity (Human Src) | Ave. MPA Act. (tubulin) | EC50 [2]
Ac-EYIYGSFK-3′Alk-MAL(9)-DOX (Ac-EYIYGSFK-{3′Alk‑MAL(9)-DOX}; reading uncertain; also: printed as Ac-EYIYGSFK-3′Alk-MAL(9)-DOX) | C (C>40) | > 100 nM | > 100 nM | > 100 nM | – | – | –
CBz-YIYGSFK-3′Alk-MAL(9)-DOX (Cbz-YIYGSFK-{3′Alk-MAL(9)-DOX}; reading uncertain; also: printed as CBz-YIYGSFK-3′Alk-MAL(9)-DOX) | C (C>40) | > 100 nM | > 100 nM | – | – | – | –
CBz-YIYGSFK(BOC)-PEG(11)-3Am-VBL (Cbz-YIYGSFK(Boc)-{PEG(11)-3Am-VBL}; reading uncertain; also: printed as CBz-YIYGSFK(BOC)-PEG(11)-3Am-VBL) | – | > 100 nM | > 100 nM | – | A (A<20) | C (C>80) | > 100 nM
Ac-E(Bzl)YIYGSFK(CBz)-PEG(13)-10Ca-PXL (Ac-E(OBn)YIYGSFK(Cbz)-{PEG(13)-10Ca-PXL}) | – | – | – | – | Zero | A (A<50) | –
Pv-GRSRTSSFAEG-PEG(13)-10Ca-PXl (Piv-GRSRTSSFAEG-{PEG(13)-10Ca‑PXL}; also: 2 TFA salt) | – | – | – | – | – | C (C>80) | –
Pv-RLVAYEGYV-PEG(11)-3Am-VBL (Piv-RLVAYEGYV-{PEG(11)-3Am‑VBL}) | – | > 100 nM | > 100 nM | > 100 nM | – | B (B=50-80) | > 100 nM
BOC-GIYWHHY-PEG(11)-3Am-VBL (N-BOC; PEG(11) linker; vinblastine conjugate) | – | > 100 nM | – | – | A (A<20) | B (B=50-80) | > 100 nM
H-YIYGSFK-3′Alk-MAL(9)-DOX (H-YIYGSFK-{3′Alk-MAL(9)-DOX}; reading uncertain) | C (C>40) | > 100 nM | – | > 100 nM | – | – | –
CBz-GIYWHHY-PEG(11)-3Am-VBL (N-CBz; PEG(11) linker; vinblastine conjugate) | – | > 100 nM | – | – | A (A<20) | B (B=50-80) | > 100 nM
Ac-YIYGSFK-PEG(13)-10Ca-PXL (N-acetyl; PEG(13) linker; paclitaxel conjugate) | – | > 100 nM | > 100 nM | – | C (C>40) | B (B=50-80) | > 100 nM
Ac-EYIFGSFK-PEG(13)-10Ca-PXL (N-acetyl, PEG13, paclitaxel conjugate) | – | > 100 nM | > 100 nM | – | Zero | B (B=50-80) | > 100 nM
Pv-RLVAYEGYV-PEG(13)-10Ca-PXL (Piv-RLVAYEGYV-{PEG(13)-10Ca‑PXL}) | – | > 100 nM | > 100 nM | > 100 nM | – | A (A<50) | > 100 nM
Ac-EYIYGSFK(CBz)-PEG(13)-10Ca-PXL (Ac-EYIYGSFK(Cbz)-{PEG(13)-10Ca-PXL}) | – | > 100 nM | > 100 nM | – | B (B=20-40) | A (A<50) | > 100 nM
CBz-YIYGSFK(CBz)-ALK(6)-10Es-PXL (Cbz-YIYGSFK(Cbz)-{ALK(6)-10Es-PXL}; reading uncertain; also: printed as CBz-YIYGSFK(CBz)-ALK(6)-10Es-PXL) | – | 20 to 100 nM | – | – | Zero | – | > 100 nM
Ac-YIYGSFK-3′Alk-MAL(9)-DOX (Ac-YIYGSFK-{3′Alk-MAL(9)-DOX}; reading uncertain; also: printed as Ac-YIYGSFK-3′Alk-MAL(9)-DOX) | C (C>40) | > 100 nM | – | – | – | – | –

From patent US20060234909A1, “Compositions and methods for increasing drug efficiency” (priority 2003, published 2006)
